Test results as given in patent US20130122085A1, “PHARMACEUTICAL COMPOSITIONS OF SELECTIVE ANDROGEN RECEPTOR MODULATORS AND METHODS OF USE THEREOF” (priority 2011, published 2013).

Assays:
[1] = Exposure of S-I in female rats; format: in vivo, rat
Protocol: The exposure of S-I in female rats was AUCinf of 147,000 ng*hr/ml following a single 10 mg per kg IV dose. With the reasonable assumption that the SC Alzet pump dose was completely absorbed, a 0.13 mg per kg dose should result in an exposure of −1911 ng*hr/mL in rats. […] In other words, the 0.13 mg per kg per day Alzet dose in rats is equivalent to a 10 mg per day continuous release dose in humans, such as might be accomplished by a mechanical or osmotic pump, or transdermal patch, or the like.

[2] = Steady-state exposure in healthy young men (G100402, MAD); details: male, human, in vivo, 10 mg daily doses
[3] = tested on: ovariectomized female rats; test: Delivery system study: lean body mass and serum HDL in OVX rats; format: in vivo, rat; details: 14 days, 0.13 mg/kg/day constant rate subcutaneous infusion (Alzet pump) vs daily subcutaneous injection
Protocol: Female rats were ovariectomized and randomized by body weight into groups of 10. Treatment groups included: (1) 3 mg/kg/day DHT administered daily via subcutaneous injection, (2) 0.13 mg/kg/day S-I administered daily via subcutaneous injection, and (3) 0.13 mg/kg/day S-I administered at a constant rate via subcutaneous infusion by an Alzet pump. Baseline measurements of fasting serum HDL as determined by enzymatic assay were performed via retroorbital blood draw for all animals. Baseline lean body mass (LBM) as determined by magnetic resonance was determined for all animals. After 14 days of treatment, changes from baseline in lean body mass (Δ LBM) and fasting serum HDL (Δ HDL) were determined and represented as a percentage of DHT treated animals.

[4] = tested on: patients with cancer; test: Phase II double-blind, placebo-controlled study in cancer patients with weight loss; format: in vivo, human; details: 3 mg dose, 4 months
Protocol: A Phase II double-blind, placebo-controlled study was performed with patients with cancer that had experienced at least a 2% total body weight loss in the 6 months prior to the study. The subjects received S-I or matching placebo for 4 months. In this study, no exercise program was mandated and no diet control or monitoring was conducted. The primary endpoint of this study was total lean body mass. The key secondary endpoint of this study was physical function (stair climb speed and power).

C[C@](O)(COc1ccc(C#N)cc1)C(=O)Nc1ccc(C#N)c(C(F)(F)F)c1 [Compound S-I, (S)—N-(4-cyano-3-(trifluoromethyl)phenyl)-3-(4-cyanophenoxy)-2-hydroxy-2-methylpropanamide]
AUC(0-inf) ([1]; rat, in vivo, 10 mg/kg, female rats, single 10 mg per kg IV dose): 147 µg·h/mL
exposure expected at 0.13 mg per kg dose ([1]; rats, SC Alzet pump dose assumed completely absorbed, extrapolated from 10 mg per kg IV): -1911 ng·h/mL
AUC(0-t) [2]: 1750 ng·h/mL
change from baseline in fasting serum HDL (Δ HDL) [3]: smaller decrease in serum HDL
change from baseline in lean body mass (Δ LBM) [3]: larger increase in LBM than daily subcutaneous injections
power subjects were able to exert climbing 12 steps ([4]; p=0.001 compared to baseline, p=0.058 compared to placebo): statistically significant increase
time it took the subjects to climb 12 steps ([4]; p=0.007 compared to baseline, p=0.028 compared to placebo): statistically significant decrease
total lean body mass ([4]; p=0.015 compared to placebo, p=0.020 compared to baseline): statistically significant increase
